Reference: patent US20250235418A1, “Butyrate Analogues and Methods of Use for HIF Stabilization and Treatment of Bowel Disease” (THE REGENTS OF THE UNIVERSITY OF COLORADO, A BODY CORPORATE, priority 2022, published 2025)

Key:
PHD2181-402 = biological target: T1, PHD2181-402 (Homo sapiens, UniProt Q9GZT9); test: bioluminescent succinate detection assay of recombinant PHD2181-402 activity/inhibition; assay type: biochemical
T1 construct: made in house
Source text: To pinpoint if butyrate inhibits PHDs directly, we expressed recombinant PHD derived from the human PHD2 sequence. There are three human PHDs: PHD1, PHD2, and PHD3, with PHD2 being the most abundant and expressed in the majority of tissues, the most important regulator of HIF, particularly HIF-1α, and the only PHD that is embryonically lethal when deleted. PHD1 is exclusively localized to the nucleus, whereas PHD2 is mainly cytoplasmic, and PHD3 is both. […] Sequence comparisons and modeling studies indicate that the PHD2 active site is highly conserved among the PHDs.
IC50s depend on exact experimental conditions, making direct comparisons and global applications difficult.

HIF regulated targets = test: intraperitoneal injection in C57BL/6 mice, HIF regulated targets (EPO, GLUT1); assay type: in vivo; conditions: IP, BA 73 mg/kg, MBA 80 mg/kg, 24h
Description: Erythropoietin (EPO) is regulated by HIF stabilization. (A) EPO protein in blood serum was assessed by mesoscale assay (n=6-8). qPCR mRNA expression of HIF target mGLUT1 in kidney (B) and colon tissue (C) (n=3-8). Data analyzed by One-way ANOVA with Tukey for post hoc correction and presented as mean±S.E.M of two independent experiments, *p<0.05, **p<0.01, ***p<0.001, ****p<0.0001 […]
At 24 h, mice were sacrificed followed by exsanguination, extraction of right kidney and distal colon for analysis of HIF stabilization and HIF target gene expression. SHBA induces HIF regulated targets in vivo. Erythropoietin (EPO) is regulated by HIF stabilization. (A) EPO protein in blood serum was assessed by mesoscale assay (n=6-8). (B) qPCR mRNA expression of HIF target mGLUT1 in colon tissue (n=3-4). Data are presented as mean±S.E.M of two independent experiments, *p<0.05, **p<0.01.
A typical physiologic response to hypoxia is the increase in red blood cell production. Naturally, HIF is in charge of this response by regulating cell-type specific gene expression that leads to increased levels of the hormone erythropoietin (EPO).[10] […] We lastly explored the in-vivo effects of MBA in mediating induction of genes tightly regulated by HIF. […] After 24h of treatment, they were sacrificed and quickly exsanguinated to measure EPO levels in serum. […] Furthermore, we studied the induction of GLUT1, another classic HIF target responsible for the transport of various monosaccharides. Kidney and colon tissue were analyzed by real-time PCR to compare BA and MBA head-to-head. […] These findings support the ability of MBA to stabilize HIF in-vivo leading to the induction of classic target genes and transcription of a tightly regulated protein EPO.

[1] = test system: HIF target genes in T84 cells; test: real-time PCR of HIF target genes BNIP3 and CAIX in T84 cells; assay type: cell-based; conditions: 16h
Description: (A) Exposure of T84 cells to Veh, BA or MBA (5 mM, 16 h) induced HIF target gene expression of CAIX and BNIP3. […] (C) Non-targeting control and T84 HIF1b depleted cells were analyzed for HIF1b expression by western blotting, shown with a representative blot. Quantification of HIF1b decrease was performed using ACTB-normalized densitometry. qPCR data was analyzed by One-way ANOVA with Bonferroni for post hoc correction and presented as mean±S.E.M, **p<0.01, ***p<0.001, ****p<0.0001 of three independent experiments.
Following these findings, we then explored if the MBA-induced stabilization of HIF was reflected in the transcriptional regulation of target genes. We utilized real-time PCR to study the influence of MBA mediated HIF stabilization in the induction of established HIF targets, BNIP3 (cell survival) and CAIX (pH regulation).
Furthermore, to confirm MBA-induced HIF transcriptional activity, we quantified the induction of BNIP3 and CAIX by BA or MBA (5 mM, 16h) in lentiviral shRNA-mediated knockdown of HIF1β relative to non-targeting shRNA controls. […] These findings confirm that through MBA exposure, HIF is stabilized and it is transcriptionally active.

T1 sequence (Q9GZT9 181-402): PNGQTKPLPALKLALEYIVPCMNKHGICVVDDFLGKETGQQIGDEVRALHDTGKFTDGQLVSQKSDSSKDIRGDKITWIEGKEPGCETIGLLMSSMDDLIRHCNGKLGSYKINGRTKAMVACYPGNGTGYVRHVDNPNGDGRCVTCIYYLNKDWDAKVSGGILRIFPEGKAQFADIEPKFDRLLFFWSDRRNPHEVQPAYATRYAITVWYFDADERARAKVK

CCCC(=O)O [Butyrate, Butyric acid]
mode of PHD inhibition (PHD2181-402): noncompetitive
IC50 (PHD2181-402; 1 μM PHD2181-402, 10 μM 2-OG, 10-minute reaction, n=5-12, error: SEM, read-out: true half maximal inhibitory concentration (IC50) for PHD2181-402): 5.3 mM
Ki (PHD2181-402; IC50 to Ki conversion equation of Cer et al., read-out: noncompetitive Ki for PHD2181-402): 5.3 mM
GLUT1 mRNA in colon tissue (HIF regulated targets): significantly increased in colon tissue
GLUT1 mRNA in kidney (HIF regulated targets): induction of GLUT1 in kidney
induction of HIF target genes BNIP3 and CAIX ([1]; T84, 5 mM): significant induction
induction of BNIP3 and CAIX in cells lacking HIF1β ([1]; T84 HIF1β shRNA knockdown, 5 mM): complete loss of induction
